{
  "source": "patent US11053204B2",
  "about": "“Pyrimidinyloxy benzene derivatives as herbicides” (FMC Corporation, priority 2015, dated 2021)",
  "assay_type_in_all_cases": "in vivo",
  "key": {"[1]": {"test_system": "barnyardgrass (Echinochloa crus-galli)", "assay": "Test A preemergence, visual injury rating", "procedure,_shortened": "(§1)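 Greenhouse pot test, loam/sand soil. Formulation: non-phytotoxic solvent mix plus surfactant. Pre: directed spray onto soil after sowing. Post: plants at 1–2 leaf, 2–10 cm. Rated visually vs untreated controls at ~10 d, 0 (no effect) to 100 (complete control).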"}, "kochia (Kochia scoparia) [2]": {"test_system": "kochia (Kochia scoparia)", "assay": "Test A preemergence, visual injury rating", "procedure,_shortened": "as §1"}, "[3]": {"test_system": "blackgrass (Alopecurus myosuroides)", "assay": "Test C postemergence, plant response rating", "details": "for Plant response rating, Blackgrass: scale 0 to 100; for Blackgrass plant response rating: scale 0 to 100 (0 no effect, 100 complete control)", "source_text": "(§2) Seeds of plant species selected from blackgrass (Alopecurus myosuroides), ryegrass, Italian (Italian ryegrass, Lolium multiflorum), wheat (winter wheat, Triticum aestivum), galium (catchweed bedstraw, Galium aparine), corn (Zea mays), crabgrass, large (large crabgrass, Digitaria sanguinalis), foxtail, giant (giant foxtail, Setaria faberii), johnsongrass (Sorghum halepense), lambsquarters (Chenopodium album), morningglory (Ipomoea coccinea), nutsedge, yellow (yellow nutsedge, Cyperus esculentus), pigweed (Amaranthus retroflexus), ragweed (common ragweed, Ambrosia elatior), soybean (Glycine max), barnyardgrass (Echinochloa crus-galli), oilseed rape (Brassica napus), pigweed, palmer (palmer pigweed, Amaranthus palmeri), waterhemp (common waterhemp, Amaranthus rudis), velvetleaf (Abutilon theophrasti), kochia (Kochia scoparia), surinam grass (Brachiaria decumbens), nightshade (eastern black nightshade, Solanum ptycanthum), wild poinsettia (Euphorbia heterophylla), windgrass (Apera spica-venti), and oat, wild (wild oat Avena fatua), were planted into a blend of loam soil and sand or a silt loam soil and treated preemergence with test chemicals formulated in a non-phytotoxic solvent mixture which included a surfactant.\n(§3) At the same time, plants selected from these crop and weed species and also chickweed (common chickweed, Stellaria media), buckwheat, wild (wild buckwheat, Polygonum convolvulus), wild mustard (Sinapis arvensis), field poppy (Papaver rhoeas), field violet (Viola arvensis), geranium, cutleaf (cutleaf geranium, Geranium dissectum), Canada thistle (Cirsium arvense), and speedwell (bird's-eye speedwell, Veronica persica), were planted in pots containing Sunshine Redi-Earth® planting medium comprising spaghnum peat moss, vermiculite, starter nutrients and dolomitic limestone and treated with postemergence applications of test chemicals formulated in the same manner. Plants ranged in height from 2 to 18 cm (1- to 4-leaf stage) for postemergence treatments. Treated plants and controls were maintained in a greenhouse for 13 to 15 d, after which time all species were compared to controls and visually evaluated. Plant response ratings, summarized in Table C, are based on a scale of 0 to 100 where 0 is no effect and 100 is complete control. A dash (-) response means no test result."}, "[4]": {"test_system": "chickweed (common chickweed, Stellaria media)", "assay": "Test C postemergence, plant response rating", "details": "for Chickweed plant response rating: scale 0 to 100 (0 no effect, 100 complete control)", "source_text": "as §2, §3"}, "corn (Zea mays)": {"test_system": "corn (Zea mays)", "assay": "Test C postemergence, plant response rating", "details": "for Corn plant response rating: scale 0 to 100 (0 no effect, 100 complete control)", "source_text": "as §2, §3"}, "[5]": {"test_system": "crabgrass, large (large crabgrass, Digitaria sanguinalis)", "assay": "Test C postemergence, plant response rating", "details": "for Crabgrass, Large plant response rating: scale 0 to 100 (0 no effect, 100 complete control)", "source_text": "as §2, §3"}, "[6]": {"test_system": "foxtail, giant (giant foxtail, Setaria faberii)", "assay": "Test C postemergence, plant response rating", "details": "for Foxtail, Giant plant response rating: scale 0 to 100 (0 no effect, 100 complete control)", "source_text": "as §2, §3"}, "kochia (Kochia scoparia) [7]": {"test_system": "kochia (Kochia scoparia)", "assay": "Test C postemergence, plant response rating", "details": "for Kochia plant response rating: scale 0 to 100 (0 no effect, 100 complete control)", "source_text": "as §2, §3"}, "[8]": {"test_system": "lambsquarters (Chenopodium album)", "assay": "Test C postemergence, plant response rating", "details": "for Lambsquarters plant response rating: scale 0 to 100 (0 no effect, 100 complete control)", "source_text": "as §2, §3"}, "[9]": {"test_system": "morningglory (Ipomoea coccinea)", "assay": "Test C postemergence, plant response rating", "details": "for Morningglory plant response rating: scale 0 to 100 (0 no effect, 100 complete control)", "source_text": "as §2, §3"}, "[10]": {"test_system": "nutsedge, yellow (yellow nutsedge, Cyperus esculentus)", "assay": "Test C postemergence, plant response rating", "details": "for Nutsedge, Yellow plant response rating: scale 0 to 100 (0 no effect, 100 complete control)", "source_text": "as §2, §3"}, "[11]": {"test_system": "oat, wild (wild oat Avena fatua)", "assay": "Test C postemergence, plant response rating", "details": "for Oat, Wild plant response rating: scale 0 to 100 (0 no effect, 100 complete control)", "source_text": "as §2, §3"}, "[12]": {"test_system": "oilseed rape (Brassica napus)", "assay": "Test C postemergence, plant response rating", "details": "for Oilseed Rape plant response rating: scale 0 to 100 (0 no effect, 100 complete control)", "source_text": "as §2, §3"}, "[13]": {"test_system": "ryegrass, Italian (Italian ryegrass, Lolium multiflorum)", "assay": "Test C postemergence, plant response rating", "details": "for Ryegrass, Italian plant response rating: scale 0 to 100 (0 no effect, 100 complete control)", "source_text": "as §2, §3"}, "soybean (Glycine max)": {"test_system": "soybean (Glycine max)", "assay": "Test C postemergence, plant response rating", "details": "for Soybean plant response rating: scale 0 to 100 (0 no effect, 100 complete control)", "source_text": "as §2, §3"}, "[14]": {"test_system": "wheat (winter wheat, Triticum aestivum)", "assay": "Test C postemergence, plant response rating", "source_text": "as §2, §3"}, "[15]": {"details": "31 g ai/ha, 0 to 100 scale, 0 no effect, 100 complete control"}, "[16]": {"details": "125 g ai/ha, 0 to 100 scale (0 no effect, 100 complete control)"}},
  "data": [
    {"smiles": "FC(F)(F)CCCc1c(Br)cccc1Oc1ncc(Cl)cn1", "note": "[Compound 89]", "values": [
      {"measurement": "Plant response rating, Barnyardgrass", "setting": "[1]; [15]", "result": 20},
      {"measurement": "Barnyardgrass plant response rating", "setting": "[1]; [16]", "result": 90},
      {"measurement": "Plant response rating, Kochia", "setting": "kochia (Kochia scoparia) [2]; [15]", "result": 10},
      {"measurement": "Kochia plant response rating", "setting": "kochia (Kochia scoparia) [2]; [16]", "result": 50},
      {"measurement": "Plant response rating, Blackgrass", "setting": "[3]; 16 g ai/ha", "result": 10},
      {"measurement": "Plant response rating, Blackgrass", "setting": "[3]; 31 g ai/ha", "result": 15},
      {"measurement": "Blackgrass plant response rating", "setting": "[3]; 62 g ai/ha", "result": 30},
      {"measurement": "Blackgrass plant response rating", "setting": "[3]; 125 g ai/ha", "result": 45},
      {"measurement": "Plant response rating, Chickweed", "setting": "[4]; 16 g ai/ha, scale of 0 to 100", "result": 65},
      {"measurement": "Plant response rating, Chickweed", "setting": "[4]; 31 g ai/ha, scale 0 to 100", "result": 95},
      {"measurement": "Chickweed plant response rating", "setting": "[4]; 62 g ai/ha", "result": 85},
      {"measurement": "Chickweed plant response rating", "setting": "[4]; 125 g ai/ha", "result": 100},
      {"measurement": "Plant response rating, Corn", "setting": "corn (Zea mays); 16 g ai/ha, scale of 0 to 100", "result": 15},
      {"measurement": "Plant response rating, Corn", "setting": "corn (Zea mays); 31 g ai/ha, scale 0 to 100", "result": 15},
      {"measurement": "Corn plant response rating", "setting": "corn (Zea mays); 62 g ai/ha", "result": 15},
      {"measurement": "Corn plant response rating", "setting": "corn (Zea mays); 125 g ai/ha", "result": 20},
      {"measurement": "Plant response rating, Crabgrass, Large", "setting": "[5]; 16 g ai/ha, scale of 0 to 100", "result": 55},
      {"measurement": "Plant response rating, Crabgrass, Large", "setting": "[5]; 31 g ai/ha, scale 0 to 100", "result": 60},
      {"measurement": "Crabgrass, Large plant response rating", "setting": "[5]; 62 g ai/ha", "result": 85},
      {"measurement": "Crabgrass, Large plant response rating", "setting": "[5]; 125 g ai/ha", "result": 90},
      {"measurement": "Plant response rating, Foxtail, Giant", "setting": "[6]; 16 g ai/ha, scale of 0 to 100", "result": 10},
      {"measurement": "Plant response rating, Foxtail, Giant", "setting": "[6]; 31 g ai/ha, scale 0 to 100", "result": 10},
      {"measurement": "Foxtail, Giant plant response rating", "setting": "[6]; 62 g ai/ha", "result": 10},
      {"measurement": "Foxtail, Giant plant response rating", "setting": "[6]; 125 g ai/ha", "result": 20},
      {"measurement": "Plant response rating, Kochia", "setting": "kochia (Kochia scoparia) [7]; 16 g ai/ha, scale of 0 to 100", "result": 70},
      {"measurement": "Plant response rating, Kochia", "setting": "kochia (Kochia scoparia) [7]; 31 g ai/ha, scale 0 to 100", "result": 75},
      {"measurement": "Kochia plant response rating", "setting": "kochia (Kochia scoparia) [7]; 62 g ai/ha", "result": 80},
      {"measurement": "Kochia plant response rating", "setting": "kochia (Kochia scoparia) [7]; 125 g ai/ha", "result": 95},
      {"measurement": "Plant response rating, Lambsquarters", "setting": "[8]; 16 g ai/ha, scale of 0 to 100", "result": 70},
      {"measurement": "Plant response rating, Lambsquarters", "setting": "[8]; 31 g ai/ha, scale 0 to 100", "result": 75},
      {"measurement": "Lambsquarters plant response rating", "setting": "[8]; 62 g ai/ha", "result": 100},
      {"measurement": "Lambsquarters plant response rating", "setting": "[8]; 125 g ai/ha", "result": 100},
      {"measurement": "Plant response rating, Morningglory", "setting": "[9]; 16 g ai/ha, scale of 0 to 100", "result": 5},
      {"measurement": "Plant response rating, Morningglory", "setting": "[9]; 31 g ai/ha, scale 0 to 100", "result": 15},
      {"measurement": "Morningglory plant response rating", "setting": "[9]; 62 g ai/ha", "result": 25},
      {"measurement": "Morningglory plant response rating", "setting": "[9]; 125 g ai/ha", "result": 55},
      {"measurement": "Plant response rating, Nutsedge, Yellow", "setting": "[10]; 16 g ai/ha, scale of 0 to 100", "result": 0},
      {"measurement": "Plant response rating, Nutsedge, Yellow", "setting": "[10]; 31 g ai/ha, scale 0 to 100", "result": 0},
      {"measurement": "Nutsedge, Yellow plant response rating", "setting": "[10]; 62 g ai/ha", "result": 0},
      {"measurement": "Nutsedge, Yellow plant response rating", "setting": "[10]; 125 g ai/ha", "result": 5},
      {"measurement": "Plant response rating, Oat, Wild", "setting": "[11]; 16 g ai/ha, scale of 0 to 100", "result": 15},
      {"measurement": "Plant response rating, Oat, Wild", "setting": "[11]; 31 g ai/ha, scale 0 to 100", "result": 10},
      {"measurement": "Oat, Wild plant response rating", "setting": "[11]; 62 g ai/ha", "result": 40},
      {"measurement": "Oat, Wild plant response rating", "setting": "[11]; 125 g ai/ha", "result": 30},
      {"measurement": "Plant response rating, Oilseed Rape", "setting": "[12]; 16 g ai/ha, scale of 0 to 100", "result": 60},
      {"measurement": "Plant response rating, Oilseed Rape", "setting": "[12]; 31 g ai/ha, scale 0 to 100", "result": 95},
      {"measurement": "Oilseed Rape plant response rating", "setting": "[12]; 62 g ai/ha", "result": 90},
      {"measurement": "Oilseed Rape plant response rating", "setting": "[12]; 125 g ai/ha", "result": 100},
      {"measurement": "Plant response rating, Ryegrass, Italian", "setting": "[13]; 16 g ai/ha, scale of 0 to 100", "result": 5},
      {"measurement": "Plant response rating, Ryegrass, Italian", "setting": "[13]; 31 g ai/ha, scale 0 to 100", "result": 5},
      {"measurement": "Ryegrass, Italian plant response rating", "setting": "[13]; 62 g ai/ha", "result": 5},
      {"measurement": "Ryegrass, Italian plant response rating", "setting": "[13]; 125 g ai/ha", "result": 10},
      {"measurement": "Plant response rating, Soybean", "setting": "soybean (Glycine max); 16 g ai/ha, scale of 0 to 100", "result": 35},
      {"measurement": "Plant response rating, Soybean", "setting": "soybean (Glycine max); 31 g ai/ha, scale 0 to 100", "result": 40},
      {"measurement": "Soybean plant response rating", "setting": "soybean (Glycine max); 62 g ai/ha", "result": 65},
      {"measurement": "Soybean plant response rating", "setting": "soybean (Glycine max); 125 g ai/ha", "result": 70},
      {"measurement": "Plant response rating, Wheat", "setting": "[14]; 16 g ai/ha, scale of 0 to 100", "result": 0},
      {"measurement": "Plant response rating, Wheat", "setting": "[14]; 31 g ai/ha, scale 0 to 100", "result": 10},
      {"measurement": "Wheat plant response rating", "setting": "[14]; 125 g ai/ha, scale 0 to 100 (0 no effect, 100 complete control)", "result": 15}
    ]}
  ]
}
